Paper PMC6024615, “Effect of Biliary Drainage on the Toxicity and Toxicokinetics of Amanita exitialis in Beagles” (Toxins, 2018)
Like-named read-outs stand apart in the source and are kept apart here.

Columns and labels:
[1] = Peptide toxins in the blood / toxicokinetics in beagles with biliary drainage; type: in vivo, beagle dogs; parameters: Dose normalized AUC (0–∞) / Dose normalized Cmax: unit not given here; conditions: for T1/2: UPLC-ESI-MS/MS
Procedure: The study was approved by National Institute of Occupational Health and Poison Control review board for animal experiments. Twenty-four male beagles (age, 8–10 months; weight, 10 ± 1 kg) were obtained from Beijing Institute of Xieerxin Biology Resource (Beijing, China). They were randomly divided into four groups of six animals each: control, biliary drainage, and 20 and 60 mg/kg with biliary drainage groups. The biliary drainage operation was conducted in all groups barring the control group. The dogs were dressed in homemade underwear, coats, and Elizabeth circles for a week to ensure pre-experimental acclimatization (Figure S8a–c). After determining the baseline values for biochemical indicators, the dogs were fasted for 24 h but received water ad libitum. They were anesthetized by intravenous administration of pentobarbital sodium (3%, 1 mL/kg) during the surgery. A temperature of 38–39 °C was maintained with a warming mat. After skin preservation and sterilization, the abdominal cavity was opened through the central abdomen. The abdomen was explored and blunt dissection of the common bile duct was performed (Figure S8d). The common bile duct and its branches were ligated from the intestinal side. A 7.0-Fr drainage catheter (COOK, Bloomington, IN, USA) was percutaneously inserted into the gallbladder, and a medical drainage bag was connected to the drainage catheter coming out of the abdominal cavity. Each opened layer, including the peritoneum, abdominal wall muscle, and skin, was closed with suture. The operative incision was protected with sterile gauze and a bandage, and the dogs were dressed in homemade underwear, coats, and Elizabeth circles. The drainage bag was placed in the pocket of the coat (Figure S8e). After the anesthetic wore off, the dogs were placed in cages, and food and water were provided ad libitum. The operative incision was sterilized with iodophor twice a day until stitches were removed six days after surgery. The drainage bag was replaced every day. On the eighth day after surgery, the 20 and 60 mg/kg with biliary drainage groups were orally administered a lyophilized powder of Amanita exitialis in starch capsules. In control and bile drainage group, the beagle dogs were fed with empty capsules. Immediately after dosing, the animals were placed in their cages, and food and water were provided ad libitum. Dogs were sacrificed with an overdose of sodium pentobarbital at the end of the experiment. All procedures were performed according to the ethical standards of the National Institutes of Health Guide for Animal Welfare and approved by the Institutional Animal Care and Use Committee (EAWE-2017-005).
Peptide toxins in blood and urine samples were analyzed as described previously. Bile samples from Days 0–1, Days 1–2, Days 2–3, and Days 3–4 were collected and stored in medical drainage bags and the bile volume was recorded. Plasma and urine samples were stored at 2–8 °C until analysis for peptide toxins.
UPLC and MS/MS parameters were as described in our previous study. The limit of detection and limit of quantitation of each toxin in the bile were 0.03 mg/kg and 0.5 mg/kg, respectively.
Toxicokinetic parameters were described in our previous study. Measurement data are reported as mean ± standard deviation values and enumeration data are reported as percentage (%). […] SPSS 22.0 (IBM Corporation, Armonk, NY, USA, 2015) was used for statistical analysis. The criterion for statistical significance was p ≤ 0.05. Except for the biliary drainage operation, the animals and methods in our present study are in accordance with our previously published study. Thus, by directly comparing the data from this study with those from our published studies on Amanita exitialis-exposed beagles without biliary drainage, we can evaluate the impact of biliary drainage on the toxicity and toxicokinetics of Amanita exitialis in beagles.

[2] = cited from earlier work
Procedure: The difference in detectable time in the urine can be explained by the low level of internal exposure (amatoxins in the blood). […] The daily amounts of peptide toxins excreted in urine in beagles without biliary drainage(mg). Time after α-Amanitin β-Amanitin Phallacidin ingestion 20 mg/kg 60 mg/kg 20 mg/kg 60 mg/kg 20 mg/kg 60 mg/kg group group group group group group 0-1d 0.0379 0.0593 0.0156 0.0251 0.0035 0.0088 (97.9%) (92.8%) (99.9%) (94.7%) (94.2%) (76%) 1-2d 0.0388 0.0618 0.01567 0.0255 0.0037 0.0110 (99.995%) (97.5%) (100%) (96.2%) (100%) (93%) 2-3d 0.0002 0.0626 0 0.0260 0 0.0115 (100%) (99.4%) (100%) (98.2%) (100%) (97.3%) 3-4d 0 0.063 ...

[3] = 20 mg/kg Amanita exitialis oral, biliary drainage, plasma, mean ± SD
[4] = 60 mg/kg Amanita exitialis oral, biliary drainage, plasma, mean ± SD

For `CC[C@H](C)[C@@H]1NC(=O)CNC(=O)[C@@H]2Cc3c([nH]c4cc(O)ccc34)[S@+]([O-])C[C@H](NC(=O)CNC1=O)C(=O)N[C@@H](CC(N)=O)C(=O)N1C[C@H](O)C[C@H]1C(=O)N[C@@H]([C@@H](C)[C@@H](O)CO)C(=O)N2` [α-amanitin], the “detection rate of peptide toxins in blood” value (“detection rate” for short) ([1]; 0 h after ingestion, 60 mg/kg with biliary drainage group) was 0%, the T1/2 [1, 3] was 1.08 ± 0.76 h and the “AUC (0–∞)” value [1, 3] was 5.36 ± 3.17 µg·h/L. The CL/F [1, 3] was 14.2 ± 7.17 mL/min/kg, the Cmax [1, 3] was 1.73 ± 0.58 µg/L and the “Dose normalized AUC (0–∞)” value [1, 3] was 138.9 ± 82.1. The “Dose normalized Cmax” value [1, 3] was 44 ± 15.1, the “MRT (0–∞)” value [1, 3] was 3.55 ± 0.8 h and the Tmax [1, 3] was 1.38 ± 0.48 h. For the same compound, the Vz/F [1, 3] was 1.07 ± 0.31 L/kg, the T1/2 [1, 4] was 1.2 ± 0.58 h and the “AUC (0–∞)” value [1, 4] was 31.99 ± 9.65 ^a,* µg/L × h. For the same compound, the CL/F [1, 4] was 6 ± 1.83 mL/min/kg, the Cmax [1, 4] was 12.25 ± 3.54 ^a,* µg/L and the “Dose normalized AUC (0–∞)” value [1, 4] was 238.2 ± 83.9. The “Dose normalized Cmax” value [1, 4] was 86.1 ± 30.8, the “MRT (0–∞)” value [1, 4] was 2.87 ± 0.43 h and the Tmax [1, 4] was 1.13 ± 0.25 h. The “detection rate” value ([1]; 0.25 h after ingestion, 20 mg/kg with biliary drainage group) was 0%, the “detection rate” value ([1]; 0.25 h after ingestion, 60 mg/kg with biliary drainage group) was 0% and the “detection rate” value ([1]; 0.5 h after ingestion, 20 mg/kg with biliary drainage group) was 33%. For the same compound, the “detection rate” value ([1]; 0.5 h after ingestion, 60 mg/kg with biliary drainage group) was 33%, the “detection rate” value ([1]; 1 h after ingestion, 20 mg/kg with biliary drainage group) was 100% and the “detection rate” value ([1]; 1 h after ingestion, 60 mg/kg with biliary drainage group) was 100%. For the same compound, the “detection rate” value ([1]; 1.5 h after ingestion, 20 mg/kg with biliary drainage group) was 100%, the “detection rate” value ([1]; 1.5 h after ingestion, 60 mg/kg with biliary drainage group) was 100% and the “detection rate” value ([1]; 2 h after ingestion, 20 mg/kg with biliary drainage group) was 100%. The “detection rate” value ([1]; 2 h after ingestion, 60 mg/kg with biliary drainage group) was 100%, the “detection rate” value ([1]; 3 h after ingestion, 20 mg/kg with biliary drainage group) was 100% and the “detection rate” value ([1]; 3 h after ingestion, 60 mg/kg with biliary drainage group) was 100%. For the same compound, the “detection rate” value ([1]; 4 h after ingestion, 20 mg/kg with biliary drainage group) was 100%, the “detection rate” value ([1]; 4 h after ingestion, 60 mg/kg with biliary drainage group) was 100% and the “detection rate” value ([1]; 5 h after ingestion, 20 mg/kg with biliary drainage group) was 100%. For the same compound, the “detection rate” value ([1]; 5 h after ingestion, 60 mg/kg with biliary drainage group) was 100%, the “detection rate” value ([1]; 6 h after ingestion, 20 mg/kg with biliary drainage group) was 100% and the “detection rate” value ([1]; 6 h after ingestion, 60 mg/kg with biliary drainage group) was 100%. For the same compound, the “detection rate” value ([1]; 8 h after ingestion, 20 mg/kg with biliary drainage group) was 50%, the “detection rate” value ([1]; 8 h after ingestion, 60 mg/kg with biliary drainage group) was 50% and the “detection rate” value ([1]; 10 h after ingestion, 20 mg/kg with biliary drainage group) was 50%. The “detection rate” value ([1]; 10 h after ingestion, 60 mg/kg with biliary drainage group) was 50%, the “detection rate” value ([1]; 12 h after ingestion, 20 mg/kg with biliary drainage group) was 17% and the “detection rate” value ([1]; 12 h after ingestion, 60 mg/kg with biliary drainage group) was 33%. The “detection rate” value ([1]; 24 h after ingestion, 20 mg/kg with biliary drainage group) was 0%, the “detection rate” value ([1]; 24 h after ingestion, 60 mg/kg with biliary drainage group) was 0% and the “detection rate” value ([1]; 36 h after ingestion, 20 mg/kg with biliary drainage group) was 0%. The “detection rate” value ([1]; 36 h after ingestion, 60 mg/kg with biliary drainage group) was 0%, the “detection rate” value ([1]; 48 h after ingestion, 20 mg/kg with biliary drainage group) was 0% and the “detection rate” value ([1]; 48 h after ingestion, 60 mg/kg with biliary drainage group) was 0%. For the same compound, the “time at which toxins were detected in plasma after ingestion” value ([1]; beagles with biliary drainage, oral Amanita exitialis) was 30 min, the Vd/F ([1]; male, beagle, dog, 60 mg/kg Amanita exitialis oral, biliary drainage, plasma, mean ± SD, read-out: Vz/F) was 0.68 ± 0.48 L/kg and the “daily amount excreted in urine, without biliary drainage” value ([2]; 0-1d, 20 mg/kg group) was 0.0379 mg. The “percentage in parentheses, urine, without biliary drainage” value ([2]; 0-1d, 20 mg/kg group) was 97.9%, the “daily amount excreted in urine, without biliary drainage” value ([2]; 0-1d, 60 mg/kg group) was 0.0593 mg and the “percentage in parentheses, urine, without biliary drainage” value ([2]; 0-1d, 60 mg/kg group) was 92.8%. For the same compound, the “Accumulative amount excreted in urine, without biliary drainage” value ([2]; 20 mg/kg group) was 0.039 mg, the “percentage in parentheses, Accumulative amount, urine, without biliary drainage” value ([2]; 20 mg/kg group) was 100% and the “Accumulative amount excreted in urine, without biliary drainage” value ([2]; 20 mg/kg group, listed as α-Amanitin) was 0.0390 mg. For the same compound, the “Accumulative amount excreted in urine, without biliary drainage” value ([2]; 60 mg/kg group) was 0.0630 mg, the “percentage in parentheses, Accumulative amount, urine, without biliary drainage” value ([2]; 60 mg/kg group) was 100% and the “percentage in parentheses, urine, without biliary drainage” value ([2]; 1-2d, 20 mg/kg group) was 99.995%. The “daily amount excreted in urine, without biliary drainage” value ([2]; 1-2d, 60 mg/kg group) was 0.0618 mg, the “percentage in parentheses, urine, without biliary drainage” value ([2]; 1-2d, 60 mg/kg group) was 97.5% and the “daily amount excreted in urine, without biliary drainage” value ([2]; 2-3d, 20 mg/kg group) was 0.0002 mg. For the same compound, the “percentage in parentheses, urine, without biliary drainage” value ([2]; 2-3d, 20 mg/kg group) was 100%, the “daily amount excreted in urine, without biliary drainage” value ([2]; 2-3d, 60 mg/kg group) was 0.0626 mg and the “percentage in parentheses, urine, without biliary drainage” value ([2]; 2-3d, 60 mg/kg group) was 99.4%. The “daily amount excreted in urine, without biliary drainage” value ([2]; 3-4d, 20 mg/kg group) was 0 mg, the “percentage in parentheses, urine, without biliary drainage” value ([2]; 3-4d, 20 mg/kg group) was 100% and the “daily amount excreted in urine, without biliary drainage” value ([2]; 3-4d, 60 mg/kg group) was 0.0630 mg. The “percentage in parentheses, urine, without biliary drainage” value ([2]; 3-4d, 60 mg/kg group) was 100%.
